The numbers were not newly measured in patent publication US10485768B2, “Treatment for glioblastoma” (SignPath Pharma Inc., priority 2015, dated 2019), which cites them from elsewhere.

In series [1] the test system is human glioma U87 cells. Conditions: U87 cells xenografted into athymic mice.
The test system of series [2] is C6 implant rat glioma. Conditions: C6 implant rat glioma model.
In series [3] the test system is human primary and recurrent GBM cell lines.

For `COc1cc(/C=C/C(=O)CC(=O)/C=C/c2ccc(O)c(OC)c2)ccc1O` [Curcumin, diferuloylmethane], in series [1], the “growth of xenografted tumor cells” value is reported as “suppress growth”. Further, in series [2], the brain tumor volume entry is listed as “reduction in brain tumor volume”. In addition, the cell growth result in series [3] is recorded as “reduced cell growth”.
